Where a name gives a salt, the structure may show the parent alone.
Experiments:
human αVβ6 Integrin = molecular target: T1, human αVβ6 Integrin (Homo sapiens, UniProt P06756+P18564); test: human αVβ6 HTRF binding assay
T1 construct: purchased R & D systems 3817-AV
Method: (§1) All binding assays used the HTRF (homogeneous time resolved fluorescence) technology from Cisbio International, therefore all assays are described as HTRF binding assays. The assay results for the Examples are listed above together with the characterization data. The HTRF binding assays are established for the following integrins: human αVβ6, human αVβ1, human αVβ3, human αVβ5, and human αVβ8. All assays used the following assay buffer: 20 mM Tris, pH 7.4, 1 mM MgCl2, 1 mM MnCl2, 0.01% Tween 20, and 0.01% BSA. Alternatively, a SPA-based assay was used for evaluation of receptor binding.
(§2) The following describes the components and a representative procedure for the human αVβ6 HTRF binding assay: Recombinant human αVβ6 Integrin (R & D systems, 3817-AV) was biotinylated. Biotinylated human αVβ6 Integrin was added to assay vessel at a final concentration of 1.25 nM. FITC-conjugated fibronectin (Cytoskeleton, FNR02) was then added at the final concentration of 5 nM. The mixture was centrifuged at 600 rpm for three minutes using Thermo Fisher Heraeus Multifuge X3 centrifuge and then incubated at RT for an hour. Streptavidin Terbium (Cisbio international 610STLB) was then added at the final concentration of 0.625 nM. The resulting mixture was centrifuged at 600 rpm for three minutes using Thermo Fisher Heraeus Multifuge X3 centrifuge and then incubated at room temperature overnight in dark before reading HTRF signals.

human αVβ3 = human αVβ3 (Homo sapiens, UniProt P05106+P06756); test: human αVβ3 HTRF binding assay
human αVβ3, sequence (P06756 31-992 limits assumed): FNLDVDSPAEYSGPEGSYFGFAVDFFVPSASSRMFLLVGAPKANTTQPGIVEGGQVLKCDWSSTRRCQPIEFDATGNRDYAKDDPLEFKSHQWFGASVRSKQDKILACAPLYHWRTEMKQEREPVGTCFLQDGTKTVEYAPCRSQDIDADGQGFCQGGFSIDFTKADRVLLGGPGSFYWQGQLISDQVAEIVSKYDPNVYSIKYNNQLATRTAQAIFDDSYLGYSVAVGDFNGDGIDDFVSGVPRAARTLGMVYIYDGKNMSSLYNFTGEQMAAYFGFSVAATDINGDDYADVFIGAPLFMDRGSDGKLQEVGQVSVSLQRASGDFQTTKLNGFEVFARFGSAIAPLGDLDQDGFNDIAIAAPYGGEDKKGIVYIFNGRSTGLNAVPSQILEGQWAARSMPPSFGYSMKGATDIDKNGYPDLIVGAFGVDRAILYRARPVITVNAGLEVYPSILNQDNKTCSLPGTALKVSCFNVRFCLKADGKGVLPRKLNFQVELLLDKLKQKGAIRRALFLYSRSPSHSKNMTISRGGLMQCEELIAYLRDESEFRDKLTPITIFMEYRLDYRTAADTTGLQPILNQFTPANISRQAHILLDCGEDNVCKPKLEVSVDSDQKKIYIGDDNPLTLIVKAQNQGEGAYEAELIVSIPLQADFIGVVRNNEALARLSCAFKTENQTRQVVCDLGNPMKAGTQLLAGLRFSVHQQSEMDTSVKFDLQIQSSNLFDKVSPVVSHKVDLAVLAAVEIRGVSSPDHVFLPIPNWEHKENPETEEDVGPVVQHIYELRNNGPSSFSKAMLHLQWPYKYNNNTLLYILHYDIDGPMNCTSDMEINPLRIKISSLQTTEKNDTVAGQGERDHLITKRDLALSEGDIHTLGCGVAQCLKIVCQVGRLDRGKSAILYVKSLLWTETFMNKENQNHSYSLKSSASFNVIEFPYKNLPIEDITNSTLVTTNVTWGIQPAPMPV
human αVβ3, sequence (P05106 27-718 limits assumed): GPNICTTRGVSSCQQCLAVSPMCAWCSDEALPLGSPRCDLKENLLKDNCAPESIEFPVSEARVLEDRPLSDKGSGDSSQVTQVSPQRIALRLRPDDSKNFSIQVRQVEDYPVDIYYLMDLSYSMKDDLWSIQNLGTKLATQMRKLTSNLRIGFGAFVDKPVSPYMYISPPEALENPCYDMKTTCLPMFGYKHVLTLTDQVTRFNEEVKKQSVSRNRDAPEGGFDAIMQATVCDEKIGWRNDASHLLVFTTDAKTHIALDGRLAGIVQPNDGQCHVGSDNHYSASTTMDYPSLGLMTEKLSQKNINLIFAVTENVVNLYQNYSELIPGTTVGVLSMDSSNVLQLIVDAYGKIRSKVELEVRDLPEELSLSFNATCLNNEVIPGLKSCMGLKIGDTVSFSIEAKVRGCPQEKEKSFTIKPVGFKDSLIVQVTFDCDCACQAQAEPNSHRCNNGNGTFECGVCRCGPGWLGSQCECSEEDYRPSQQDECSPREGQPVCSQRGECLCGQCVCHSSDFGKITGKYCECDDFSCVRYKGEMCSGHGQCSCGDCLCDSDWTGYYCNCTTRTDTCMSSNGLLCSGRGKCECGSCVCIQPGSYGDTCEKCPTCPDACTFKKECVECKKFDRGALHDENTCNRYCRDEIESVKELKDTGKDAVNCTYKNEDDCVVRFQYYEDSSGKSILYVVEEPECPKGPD
Method: as §1, §2

human αVβ5 = human αVβ5 (Homo sapiens, UniProt P06756+P18084); test: human αVβ5 HTRF binding assay
human αVβ5, sequence (P06756 31-992 limits assumed): as the sequence (P06756 31-992 limits assumed) above
human αVβ5, sequence (P18084 24-719 limits assumed): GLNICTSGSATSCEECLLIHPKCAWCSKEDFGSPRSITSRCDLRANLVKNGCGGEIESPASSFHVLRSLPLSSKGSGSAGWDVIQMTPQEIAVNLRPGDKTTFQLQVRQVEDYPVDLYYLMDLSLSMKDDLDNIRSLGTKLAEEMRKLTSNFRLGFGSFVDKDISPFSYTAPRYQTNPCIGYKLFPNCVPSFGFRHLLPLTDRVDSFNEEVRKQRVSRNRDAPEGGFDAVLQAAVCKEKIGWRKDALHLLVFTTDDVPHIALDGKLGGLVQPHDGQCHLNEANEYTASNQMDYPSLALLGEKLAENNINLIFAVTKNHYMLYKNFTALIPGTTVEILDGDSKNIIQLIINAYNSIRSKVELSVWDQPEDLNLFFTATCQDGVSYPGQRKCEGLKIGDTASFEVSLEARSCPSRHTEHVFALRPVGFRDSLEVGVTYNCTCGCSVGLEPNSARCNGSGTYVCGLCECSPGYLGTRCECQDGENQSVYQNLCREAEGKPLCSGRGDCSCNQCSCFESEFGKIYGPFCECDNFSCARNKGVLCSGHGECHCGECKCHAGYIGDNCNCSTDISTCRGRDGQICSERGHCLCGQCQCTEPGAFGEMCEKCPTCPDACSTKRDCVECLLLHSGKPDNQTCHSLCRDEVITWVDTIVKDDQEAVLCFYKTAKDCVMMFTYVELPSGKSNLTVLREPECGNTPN
Method: as §1, §2

human αVβ8 = human αVβ8 (Homo sapiens, UniProt P06756+P26012); test: human αVβ8 HTRF binding assay
human αVβ8, sequence (P06756 31-992 limits assumed): as the sequence (P06756 31-992 limits assumed) above
human αVβ8, sequence (P26012 43-684 limits assumed): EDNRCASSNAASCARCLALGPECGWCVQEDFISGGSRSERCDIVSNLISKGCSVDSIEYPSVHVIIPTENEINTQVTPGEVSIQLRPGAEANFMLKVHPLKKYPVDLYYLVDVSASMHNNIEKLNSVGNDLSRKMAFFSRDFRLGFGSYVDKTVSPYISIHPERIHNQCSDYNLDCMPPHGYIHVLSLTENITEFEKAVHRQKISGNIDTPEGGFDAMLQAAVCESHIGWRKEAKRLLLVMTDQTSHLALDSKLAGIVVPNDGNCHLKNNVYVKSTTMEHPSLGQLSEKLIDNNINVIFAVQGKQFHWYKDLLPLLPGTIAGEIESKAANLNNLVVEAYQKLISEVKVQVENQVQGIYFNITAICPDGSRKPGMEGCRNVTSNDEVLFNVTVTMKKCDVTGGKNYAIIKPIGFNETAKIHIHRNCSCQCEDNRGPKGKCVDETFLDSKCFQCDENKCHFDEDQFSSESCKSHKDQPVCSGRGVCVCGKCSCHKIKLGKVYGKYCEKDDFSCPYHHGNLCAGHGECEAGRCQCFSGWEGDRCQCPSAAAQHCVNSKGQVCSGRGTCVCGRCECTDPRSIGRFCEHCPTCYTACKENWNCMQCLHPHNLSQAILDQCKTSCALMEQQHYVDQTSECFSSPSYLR
Method: as §1, §2

human αVβ1 = human αVβ1 (Homo sapiens, UniProt P05556+P06756); test: human αVβ1 HTRF binding assay
human αVβ1, sequence (P06756 31-992 limits assumed): as the sequence (P06756 31-992 limits assumed) above
human αVβ1, sequence (P05556 21-728 limits assumed): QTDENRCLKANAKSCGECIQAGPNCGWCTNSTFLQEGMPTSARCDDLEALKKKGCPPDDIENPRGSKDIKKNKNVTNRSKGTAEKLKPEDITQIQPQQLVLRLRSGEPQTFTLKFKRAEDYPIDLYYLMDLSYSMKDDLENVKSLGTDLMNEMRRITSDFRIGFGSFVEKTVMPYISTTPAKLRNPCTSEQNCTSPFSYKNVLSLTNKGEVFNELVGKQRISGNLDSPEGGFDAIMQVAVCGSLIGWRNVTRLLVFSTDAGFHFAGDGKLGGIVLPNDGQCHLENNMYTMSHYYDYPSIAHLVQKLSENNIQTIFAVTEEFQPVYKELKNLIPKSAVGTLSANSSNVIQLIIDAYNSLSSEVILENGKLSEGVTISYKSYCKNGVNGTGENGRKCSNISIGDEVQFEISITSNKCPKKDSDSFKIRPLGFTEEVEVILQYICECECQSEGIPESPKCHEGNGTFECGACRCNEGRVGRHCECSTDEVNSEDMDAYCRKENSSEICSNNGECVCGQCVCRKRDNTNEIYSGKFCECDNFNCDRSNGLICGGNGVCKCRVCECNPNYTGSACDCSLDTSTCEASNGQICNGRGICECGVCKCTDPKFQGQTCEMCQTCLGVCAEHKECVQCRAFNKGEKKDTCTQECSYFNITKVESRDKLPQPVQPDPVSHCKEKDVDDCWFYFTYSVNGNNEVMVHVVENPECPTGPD
Method: as §1, §2

T1 sequence (P06756 31-992 limits assumed): as the sequence (P06756 31-992 limits assumed) above
T1 sequence (P18564 22-707 limits assumed): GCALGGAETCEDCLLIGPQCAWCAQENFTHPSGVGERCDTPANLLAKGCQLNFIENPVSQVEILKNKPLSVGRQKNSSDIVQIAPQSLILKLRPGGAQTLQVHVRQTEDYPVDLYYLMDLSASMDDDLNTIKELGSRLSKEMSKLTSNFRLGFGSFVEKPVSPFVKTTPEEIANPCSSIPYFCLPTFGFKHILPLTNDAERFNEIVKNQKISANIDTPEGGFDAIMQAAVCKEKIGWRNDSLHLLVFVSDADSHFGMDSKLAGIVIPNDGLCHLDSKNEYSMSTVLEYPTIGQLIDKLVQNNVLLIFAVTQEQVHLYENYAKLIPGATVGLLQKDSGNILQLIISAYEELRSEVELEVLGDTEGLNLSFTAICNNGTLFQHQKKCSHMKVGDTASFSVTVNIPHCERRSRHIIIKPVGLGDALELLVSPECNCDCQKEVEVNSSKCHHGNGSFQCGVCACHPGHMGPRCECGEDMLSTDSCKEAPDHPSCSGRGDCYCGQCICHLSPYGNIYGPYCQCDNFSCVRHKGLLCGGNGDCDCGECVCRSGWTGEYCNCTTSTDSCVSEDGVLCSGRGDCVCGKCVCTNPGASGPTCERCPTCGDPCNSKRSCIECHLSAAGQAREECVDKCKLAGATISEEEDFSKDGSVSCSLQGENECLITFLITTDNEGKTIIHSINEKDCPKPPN

Row | SMILES | IC50 (human αVβ6 Integrin) [nM] | IC50 (human αVβ3) [nM] | IC50 (human αVβ5) [nM] | IC50 (human αVβ8) [nM] | IC50 (human αVβ1) [nM]
1 | COc1ccc([C@H](CC(=O)O)NC(=O)c2cc(-c3ccc4c(n3)NCCC4)c[nH]2)cc1F [Example 19] | 81 |  |  |  | 
2 | CCn1cc(CCc2ccc3c(n2)NCCC3)cc1C(=O)N[C@@H](CC(=O)O)c1ccc(OC)nc1 [Example 9] | 46.8 |  |  |  | 
3 | Cc1ncc(C(CC(=O)O)NC(=O)c2cc(CCc3ccc4c(n3)NCCC4)c[nH]2)cn1 (stereo not shown) [Example 13] | 6.7 | 4.59 | 3.84 |  | 4000
4 | COc1ncc(C(CC(=O)O)NC(=O)c2cc(CCc3ccc4c(n3)NCCC4)c[nH]2)cn1 (stereo not shown) [Example 14] | 7.17 | 4.69 | 5.68 |  | 3710
5 | O=C(O)CC(NC(=O)c1cc(CCc2ccc3c(n2)NCCC3)c[nH]1)c1cnc2ccccc2n1 (stereo not shown) [Example 18] | 25.9 |  |  |  | 
6 | O=C(O)CC(NC(=O)c1cc(CCc2ccc3c(n2)NCCC3)c[nH]1)c1cncnc1 (stereo not shown) [Example 15] | 11.9 |  |  |  | 
7 | COc1ncc([C@H](CC(=O)O)NC(=O)c2cc(CCCc3ccc4c(n3)NCCC4)c[nH]2)cn1 [Example 22] | 14.5 |  |  |  | 
8 | Cc1ncc([C@H](CC(=O)O)NC(=O)c2cc(CCCc3ccc4c(n3)NCCC4)c[nH]2)cn1 [Example 21] | 167 |  |  |  | 
9 | COc1ccc([C@@H](CC(=O)O)NC(=O)c2cc(CCc3ccc4c(n3)NCCC4)c[nH]2)cc1F [Example 3] | 229 |  |  |  | 
10 | COc1ccc([C@H](CC(=O)O)NC(=O)c2cc(CCc3ccc4c(n3)NCCC4)cn2C)cc1F [Example 4] | 22.1 |  |  |  | 
11 | COc1ccc([C@H](CC(=O)O)NC(=O)c2cc(CCCc3ccc4c(n3)NCCC4)c[nH]2)cn1 [Example 20] | 22.4 |  |  |  | 
12 | COc1ccc([C@H](CC(=O)O)NC(=O)c2cc(CCc3ccc4c(n3)NCCC4)c(C)[nH]2)cc1F [Example 6] | 5.93 |  |  |  | 
13 | CCn1cc(CCc2ccc3c(n2)NCCC3)cc1C(=O)N[C@@H](CC(=O)O)c1ccc(OC)c(F)c1 [Example 5] | 50.3 |  |  |  | 
14 | COc1ccc([C@H](CC(=O)O)NC(=O)c2cc(CCc3ccc4c(n3)NCCC4)cn2C)cn1 [Example 8] | 22.5 |  |  |  | 

Stronger by IC50 (human αVβ6 Integrin), values ahead:

Row | IC50 (human αVβ6 Integrin) [nM] | IC50 (human αVβ3) [nM] | IC50 (human αVβ5) [nM] | IC50 (human αVβ8) [nM] | IC50 (human αVβ1) [nM] | SMILES
15 | 4.63 | 3.68 | 0.85 | 3760 | 1220 | O=C(O)C[C@H](NC(=O)c1cc(CCc2ccc3c(n2)NCCC3)c[nH]1)c1ccc2c(c1)OCC2 [Example 17]
16 | 4 |  |  |  |  | COc1ccc([C@H](CC(=O)O)NC(=O)c2cc(CCc3ccc4c(n3)NCCC4)c[nH]2)cn1 [Example 7]
17 | 3.96 | 2.49 | 10.4 | 415 |  | COc1ccc([C@H](CC(=O)O)NC(=O)c2cc(CCc3ccc4c(n3)NCCC4)c(C)[nH]2)cn1 [Example 10]
18 | 3.75 |  |  |  |  | COc1ccc([C@H](CC(=O)O)NC(=O)c2cc(CCC3CCc4cccnc4N3)c[nH]2)cc1F (mixture of isomers) [Example 2, (3S)-3-(3-Fluoro-4-methoxyphenyl)-3-(4-(2-(1,2,3,4-tetrahydro-1,8-naphthyridin-2-yl)ethyl)-1H-pyrrole-2-carboxamido)propanoic Acid]
19 | 2.55 |  |  |  |  | COc1ccc([C@H](CC(=O)O)NC(=O)c2cc(CCc3ccc4c(n3)NCCC4)c[nH]2)cc1F [Example 1, (S)-3-(3-Fluoro-4-methoxyphenyl)-3-(4-(2-(5,6,7,8-tetrahydro-1,8-naphthyridin-2-yl)ethyl)-1H-pyrrole-2-carboxamido)propanoic Acid]
20 | 2.03 |  |  |  |  | O=C(O)C[C@H](NC(=O)c1cc(CCc2ccc3c(n2)NCCC3)c[nH]1)c1cc(Cl)cc(Cl)c1 [Example 11]
21 | 1.1 | 3.44 | 1.73 |  | 360 | O=C(O)C[C@H](NC(=O)c1cc(CCc2ccc3c(n2)NCCC3)c[nH]1)c1cnc2ccccc2c1 [Example 16]
22 | 1.02 | 5.36 | 0.54 | 9.06 |  | Cc1cc(C)c(S(=O)(=O)N[C@@H](CNC(=O)c2cc(CCc3ccc4c(n3)NCCC4)c[nH]2)C(=O)O)c(C)c1 [Example 23, (S)-3-(4-(2-(5,6,7,8-Tetrahydro-1,8-naphthyridin-2-yl)ethyl)-1H-pyrrole-2-carboxamido)-2-((2,4,6-trimethylphenyl)sulfonamido)propanoic Acid]
23 | 0.63 |  |  |  |  | CC(C)(C)c1cc(Br)cc([C@H](CC(=O)O)NC(=O)c2cc(CCc3ccc4c(n3)NCCC4)c[nH]2)c1 [Example 12]
24 | 0.61 | 2 | 0.23 | 11.9 | 3.03 | Cc1cc(C)c(S(=O)(=O)N[C@@H](CNC(=O)c2cc(CCC3CCc4cccnc4N3)c[nH]2)C(=O)O)c(C)c1 (mixture of isomers) [Example 24, (2S)-3-(4-(2-(1,2,3,4-Tetrahydro-1,8-naphthyridin-2-yl)ethyl)-1H-pyrrole-2-carboxamido)-2-((2,4,6-trimethylphenyl)sulfonamido)propanoic Acid]
25 | 0.34 | 1.5 | 0.16 | 12.6 |  | O=C(N[C@@H](CNC(=O)c1cc(CCc2ccc3c(n2)NCCC3)c[nH]1)C(=O)O)OCc1ccccc1 [Example 25, (S)-2-(((Benzyloxy)carbonyl)amino)-3-(4-(2-(5,6,7,8-tetrahydro-1,8-naphthyridin-2-yl)ethyl)-1H-pyrrole-2-carboxamido)propanoic Acid, TFA]
26 | 0.28 | 1.67 | 0.09 | 8.78 |  | O=C(N[C@@H](CNC(=O)c1cc(CCc2ccc3c(n2)NCCC3)c[nH]1)C(=O)O)OC1CCCC1 [Example 26, (S)-2-(((Cyclopentyloxy)carbonyl)amino)-3-(4-(2-(5,6,7,8-tetrahydro-1,8-naphthyridin-2-yl)ethyl)-1H-pyrrole-2-carboxamido)propanoic Acid]
